Data: patent US6979447B2, “Immunomodulation and effect on cell processes relating to serotonin family receptors” (Philadelphia Health and Education Corporation, priority 2001, dated 2005)

Tests used:
murine lymphocytes = test: Murine mixed lymphocyte reaction (BALB/c vs. C57BL6); type: cell-based, mouse; details: BALB/c vs. C57BL6, FIG. 10
Experimental: MLRs were performed essentially as described in Current Protocols in Immunology (1999, Section 3.12.6-3.12.7). That is, the primary spleen cells obtained from C57/B6J mice were used as stimulators. They were purified as described in Current Protocols in Immunology (1999, Section 3.1.5), and were irradiated (35 Gy) at the Hahnemann Hospital (Philadelphia, Pa.) blood bank facility. Primary spleen cells obtained from BALB/c/BYJ were depleted from the adherent cells using a nylon wool column, and were used as responders.
The various inhibitors were pre-plated onto 96 well, U-bottom plates and all experimental conditions were assayed at least in triplicate. 100,000 C57/B6 cells in RPMI medium, supplemented with 10% FBS, were plated into each well. 200,000 of BALB/c/BYJ cells were plated over the stimulator cells, to a final volume of 200 μl/well. Background controls received either no BALB/c cells, or no C57/B6 cells. One micro Ci of tritiated thymidine was added to each well after 4 days, and the plates were harvested 12 hours later.

human lymphocytes [1] = test: Human mitogenic (ConA) stimulation, 3H-thymidine incorporation; type: cell-based; details: for effect on activation / proliferative response: ConA 5 μg/ml, FIGS. 7A, 8A, 9A
Experimental: Blood from healthy volunteers was drawn using venipuncture, using Vacutainer collection sets and heparinized collection vials. The blood was diluted 1:1 using HBSS to a total volume of 30 ml in 50 ml conical tubes (Fisher Scientific, Co., Pittsburgh, Pa.). […] Cells from the buffy coats were collected and the residual Histopaque was washed away using repeated centrifugations in HBSS. After washes, cells were resuspended at 5 million cells per ml in RPMI, supplemented with 2% FBS. To remove adherent cells, the suspension was plated onto a 6 well flat-bottom plate (Corning Costar), 3 ml/well, and incubated for 2 hours at 37° C., 5% CO2. Non-adherent cells were harvested after this incubation, were counted and resuspended in RPMI supplemented with 10% human serum (Sigma).
All drugs were pre-plated before the cell suspension was added onto each well of a 96-well round-bottom plate. All experimental conditions were assayed in at least triplicate. Cells suspended in RPMI supplemented with 10% human serum were plated at 100,000 cells per well to a final volume of 200 μl. […] Control samples received no ConA stimulation. The plates were incubated at 37° C. and 5% CO2. One microCurie of tritiated thymidine was added to each well after 60 hours, and the plates were harvested 12 hours later.

human lymphocytes [2] = test: Human mixed lymphocyte reaction (allogeneic stimulation); type: cell-based; details: allogeneic stimulation, harvested 120 hours, FIGS. 7B, 8B, 9B
Excerpt: Blood from two healthy, non-related, donors was taken as described above. Peripheral blood mononuclear cells were isolated as described previously elsewhere. The adherent cells were separated from the suspension cells as described previously for both donors. Suspension cells from both donors (donors A and B) were used as responders. The remaining adherent cells from each of the donors were used as stimulators against a different donor (suspension A against adherent B and adherent A against suspension B). The stimulator cells were irradiated at 35 Gy. Drugs were pre-plated onto 96 well, U-bottom plates in triplicate. 200,000 “stimulator” cells in RPMI supplemented with 10% human serum were then plated in each well. 200,000 “responder” cells in the same medium were then plated over stimulators to a final volume of 200 μl/well. Background controls received either no stimulator cells, or no responder cells. The plates were incubated at 37° C. and 5% CO2. 1 μCi of tritiated thymidine was added to each well after 4.5 days, and the plates were harvested 12 hours later.

[3] = test system: RPMI 8226 multiple myeloma cells; test: RPMI 8226 cell proliferation / viability (trypan blue, MTT, 3H-thymidine); type: cell-based, human; details: low dose-titration, FIGS. 23, 24 and 25
Experimental: The human plasmacytoma (multiple myeloma) cell line, RPMI 8226 (American Type Culture Collection, Manassas, Va.), was cultured in RPMI 1640 supplemented with 10 mM HEPES, 1 mM sodium pyruvate, 4.5 g/L glucose, 1.5 g/L bicarbonate and 20% FBS (non-heat inactivated).
Cell proliferation was assayed by three methods—Trypan Blue Exclusion was used to quantify the number of viable cells in culture; 3-(4,5-dimethylthiazol-2-yl)-2,5-diphenyl tetrazolium bromide (MTT) reduction was used to assay mitochondrial activity (and thus cell viability); and ^3H-Thymidine uptake was employed to assay for active DNA synthesis.
The following 5-HT receptor modulating compounds were tested for their effects on RPMI 8226 cells in vitro cultured at the described densities and across the indicated concentration ranges.

RPMI-8226 cells = test: Hematoxylin-eosin / bis-benzamide staining of RPMI-8226 cytospins; type: cell-based, human
Experimental: 2.0×10^5 RPMI-8226 cells were cultured, in 6-well culture plates, in the presence of the indicated drug concentrations, in a total of 5 mL RPMI-1640 supplemented with 10% FBS. Each well was harvested in its entirety and divided into two identical samples for cytospins.
1.0×10^5 RPMI-8226 cells from each treatment group were loaded into Cyto-funnels and centrifuged at 500 rpm for 4 minutes with medium acceleration. Slides were then fixed through graded methanol in PBS (100%, 5 minutes; 80%, 5 minutes; 50%, 5 minutes), washed for 5 minutes in PBS and stored in PBS at 4° C. until stained.
Cytospun slides were stained with Hematoxylin and Eosin, followed by the nuclear stain, bis-benzamide, rinsed and mounted according to standard staining protocols. Slides were visualized under both brightfield and fluorescent light to generate matched images of the same slide field (see, e.g., FIGS. 28 and 29).

T cells = test: Macrophage media-conditioning study, T cell proliferation in conditioned media; type: cell-based, mouse; details: added to conditioned media, FIG. 1
Excerpt: Femur and tibia bones were harvested from the hind limbs of 6-8 week old C57/B6J mice (Jackson Laboratories, Bar Harbor, Me.). The distal ends of the bones were removed, exposing the marrow plugs. Using a 22 gauge needle (Becton-Dickinson, Lincoln Park, N.J.), the marrow cavities were flushed with RPMI medium supplemented 2% FBS. The cell suspension was then passed through a nylon mesh to remove stromal cells. Red blood cells were lysed using ACK (ammonium chloride potassium lysis buffer; 0.15 M NH4Cl, 10 mM KHCO3, 0.1 mM EDTA) buffer as described in Current Protocols in Immunology (Section 3.1.5).
Cells were resuspended at 10^7 cells/ml in RPMI medium, containing 10% FBS, 500 units/ml of murine M-CSF, and 3 ml/well of cell suspension were plated onto a 6 well flat-bottom plate. […] Cells were grown for 4 days. Spleens of 6-8 week old BALB/c/BYJ were harvested, and single cell suspension was made. Red blood cells were removed as described above. Adherent cells were removed by 1.5 hour incubation on a nylon wool column, and suspension cells were collected. The BALB/c cells were then plated over the C57/B6 cells (see supra), at 1.2×10^6 cells/well, in 0.65 ml (bringing brought the final volume of each well to 1.3 ml). The cells were grown for 2.5 days. When appropriate, fluoxetine or BCH were added at the beginning of this incubation. The medium from the mixed cell cultures was harvested, centrifuged at 1200 RPM to remove cells, and filtered using a 0.22 microns syringe filter (Corning). This filtered medium was used to support another round of cell proliferation.

Compound: 5-methyl hydroxytryptamine
- effect on outcome of murine MLR (murine lymphocytes): slight enhancement

Compound: CNc1cc(NS(=O)(=O)c2ccc(N)cc2)nc(NC)n1 [Ro 04-679]
- effect on outcome of murine MLR (murine lymphocytes): no effects on the outcome of the assay

Compound: Cc1cc2c(cc1Cl)N(C(=O)Nc1ccc(Oc3cccnc3C)nc1)CC2 [SB 242084]
- inhibitory profile when dosed at time=0 or time=48 hours (human lymphocytes [1]; ConA 1 μg/ml, harvested 72 hours, FIG. 12): retained the complete inhibitory profile
- effect on activation / proliferative response (human lymphocytes [1]; harvested 72 hours): inhibit the activation response at pharmacologically relevant concentrations
- effect on activation / proliferative response (human lymphocytes [2]): inhibit the activation response at pharmacologically relevant concentrations
- effect on growth of RPMI-8226 cells [3]: strong inhibition of growth
- chromatin / nuclear morphology (RPMI-8226 cells; 50 μM, 9 hour treatment, FIGS. 28, 29): condensed and fragmented chromatin
- induction of programmed cell death (RPMI-8226 cells; FIGS. 28 and 29): induced programmed cell death comparable to that induced by the topoisomerase I inhibitor, camptothecin

Compound: CSc1ccc2c(c1)C(N1CCN(C)CC1)Cc1ccccc1S2 (centres unmarked) [methiothepin]
- effect on activation / proliferative response (human lymphocytes [1]; harvested 72 hours): inhibit the activation response at pharmacologically relevant concentrations
- effect on activation / proliferative response (human lymphocytes [2]): inhibit the activation response at pharmacologically relevant concentrations
- effect on growth of RPMI-8226 cells [3]: strong inhibition of growth

Compound: N[C@@H](Cc1c[nH]c2ccccc12)C(=O)O [tryptophan]
- relief of phenelzine-induced inhibition (human lymphocytes [1]; ConA 1 μg/ml, added to phenelzine-inhibited cells, 100 μM each, FIG. 6): had very little effect
- effect on proliferative response (human lymphocytes [1]; ConA 1 μg/ml, reagent 100 μM, FIG. 6): enhanced the proliferative response
- effect on proliferative response (human lymphocytes [1]; highest ConA dose, 10 μg/ml, harvest 72 hours, FIG. 5C): no enhancement at the highest level
- effect on stimulation of ConA-stimulated human PBLs (human lymphocytes [1]; reagents at 400 μM, time course, FIG. 4): enhanced the maximal stimulation of the cells
- effect on proliferative response (human lymphocytes [1]; weakest signal strength, 0.1 μg/ml ConA, harvest 72 hours, FIG. 5A): augments the proliferative response
- restoration of T cell proliferation in conditioned media (T cells): had no effect
